Assay results: ChEMBL document CHEMBL4673219, “Novel 5,6-disubstituted pyrrolo[2,3-d]pyrimidine derivatives as broad spectrum antiproliferative agents: Synthesis, cell based assays, kinase profile and molecular docking study” (Bioorg Med Chem, 2018)

Assays:
ACHN [1] = test: Growth inhibition of human ACHN cells incubated for 48 hrs by sulforhodamine B assay; format: functional
ACHN [2] = test: Growth inhibition of human ACHN cells assessed as growth percentage at 100 uM incubated for 48 hrs by sulforhodamine B assay relative to control; format: functional; conditions: read-out: Activity
ACHN [3] = test: Growth inhibition of human ACHN cells assessed as growth percentage at 0.1 uM incubated for 48 hrs by sulforhodamine B assay relative to control; format: functional; conditions: read-out: Activity
SK-MEL-28 [4] = test: Growth inhibition of human SK-MEL-28 cells assessed as growth percentage at 1 uM incubated for 48 hrs by sulforhodamine B assay relative to control; format: functional; conditions: read-out: Activity
SK-MEL-28 [5] = test: Growth inhibition of human SK-MEL-28 cells assessed as growth percentage at 0.1 uM incubated for 48 hrs by sulforhodamine B assay relative to control; format: functional; conditions: read-out: Activity
SK-MEL-2 = test: Growth inhibition of human SK-MEL-2 cells assessed as growth percentage at 100 uM incubated for 48 hrs by sulforhodamine B assay relative to control; format: functional; conditions: read-out: Activity
OVCAR-5 [6] = test: Growth inhibition of human OVCAR-5 cells assessed as growth percentage at 100 uM incubated for 48 hrs by sulforhodamine B assay relative to control; format: functional; conditions: read-out: Activity
SF-539 [7] = test: Growth inhibition of human SF-539 cells assessed as growth percentage at 100 uM incubated for 48 hrs by sulforhodamine B assay relative to control; format: functional; conditions: read-out: Activity
OVCAR-5 [8] = test: Growth inhibition of human OVCAR-5 cells assessed as growth percentage at 1 uM incubated for 48 hrs by sulforhodamine B assay relative to control; format: functional; conditions: read-out: Activity
OVCAR-5 [9] = test: Growth inhibition of human OVCAR-5 cells assessed as growth percentage at 0.1 uM incubated for 48 hrs by sulforhodamine B assay relative to control; format: functional; conditions: read-out: Activity
SF-539 [10] = test: Growth inhibition of human SF-539 cells assessed as growth percentage at 0.1 uM incubated for 48 hrs by sulforhodamine B assay relative to control; format: functional; conditions: read-out: Activity
OVCAR-5 [11] = test: Growth inhibition of human OVCAR-5 cells assessed as growth percentage at 0.01 uM incubated for 48 hrs by sulforhodamine B assay relative to control; format: functional; conditions: read-out: Activity
SF-539 [12] = test: Growth inhibition of human SF-539 cells assessed as growth percentage at 0.01 uM incubated for 48 hrs by sulforhodamine B assay relative to control; format: functional; conditions: read-out: Activity
[13] = Tmax in Sprague-Dawley rat at 10 mg/kg, po measured up to 24 hrs by LC-MS/MS analysis; format: ADME, organism-based; conditions: in vivo
[14] = Cmax in Sprague-Dawley rat at 10 mg/kg, po measured up to 24 hrs by LC-MS/MS analysis; format: ADME, organism-based; set-up: route oral, dose 10 mg/kg, time <=24; conditions: in vivo
[15] = AUClast in Sprague-Dawley rat at 10 mg/kg, po measured up to 24 hrs by LC-MS/MS analysis; format: ADME, organism-based; set-up: route oral, dose 10 mg/kg, time <=24; conditions: in vivo
[16] = AUC (0 to infinity) in Sprague-Dawley rat at 10 mg/kg, po measured up to 24 hrs by LC-MS/MS analysis; format: ADME, organism-based; set-up: route oral, dose 10 mg/kg, time <=24; conditions: in vivo
[17] = Oral bioavailability in Sprague-Dawley rat at 10 mg/kg measured up to 24 hrs by LC-MS/MS analysis; format: ADME, organism-based; conditions: in vivo
[18] = Clearance in Sprague-Dawley rat at 10 mg/kg, iv measured up to 24 hrs by LC-MS/MS analysis; format: ADME, organism-based; conditions: in vivo
[19] = Terminal half life in Sprague-Dawley rat at 10 mg/kg, iv measured up to 24 hrs by LC-MS/MS analysis; format: ADME, organism-based; conditions: in vivo, read-out: beta t1/2
[20] = AUClast in Sprague-Dawley rat at 10 mg/kg, iv measured up to 24 hrs by LC-MS/MS analysis; format: ADME, organism-based; set-up: route intravenous, dose 10 mg/kg, time <=24; conditions: in vivo
[21] = AUC (0 to infinity) in Sprague-Dawley rat at 10 mg/kg, iv measured up to 24 hrs by LC-MS/MS analysis; format: ADME, organism-based; set-up: route intravenous, dose 10 mg/kg, time <=24; conditions: in vivo
[22] = target: Tyrosine-protein kinase Yes (Homo sapiens) (UniProt P07947); test: Inhibition of human YES1 at 10 uM using myelin basic protein as substrate incubated for 40 mins in presence of [gamma33P]ATP by scintillation counting method relative to control
Tyrosine-protein kinase Yes (Homo sapiens), sequence (P07947 2-543 limits assumed): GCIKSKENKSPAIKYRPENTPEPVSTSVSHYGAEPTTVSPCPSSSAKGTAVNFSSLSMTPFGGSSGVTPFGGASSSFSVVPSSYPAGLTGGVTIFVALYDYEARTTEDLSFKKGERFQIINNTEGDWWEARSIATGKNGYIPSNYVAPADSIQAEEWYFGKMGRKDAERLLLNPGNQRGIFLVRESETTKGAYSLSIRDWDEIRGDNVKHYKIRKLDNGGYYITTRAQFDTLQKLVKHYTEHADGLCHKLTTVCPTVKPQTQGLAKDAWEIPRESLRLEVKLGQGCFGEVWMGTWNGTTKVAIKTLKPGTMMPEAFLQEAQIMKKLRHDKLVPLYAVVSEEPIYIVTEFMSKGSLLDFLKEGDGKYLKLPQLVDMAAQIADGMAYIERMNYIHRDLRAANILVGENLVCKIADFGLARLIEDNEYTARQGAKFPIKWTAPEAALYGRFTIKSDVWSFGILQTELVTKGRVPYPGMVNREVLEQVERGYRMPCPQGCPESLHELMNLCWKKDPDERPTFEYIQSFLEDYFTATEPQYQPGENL

[23] = target: Tyrosine-protein kinase Lyn (Homo sapiens) (UniProt P07948); test: Inhibition of human LYN at 10 uM using myelin basic protein as substrate incubated for 40 mins in presence of [gamma33P]ATP by scintillation counting method relative to control
Tyrosine-protein kinase Lyn (Homo sapiens), sequence (P07948 2-512 limits assumed): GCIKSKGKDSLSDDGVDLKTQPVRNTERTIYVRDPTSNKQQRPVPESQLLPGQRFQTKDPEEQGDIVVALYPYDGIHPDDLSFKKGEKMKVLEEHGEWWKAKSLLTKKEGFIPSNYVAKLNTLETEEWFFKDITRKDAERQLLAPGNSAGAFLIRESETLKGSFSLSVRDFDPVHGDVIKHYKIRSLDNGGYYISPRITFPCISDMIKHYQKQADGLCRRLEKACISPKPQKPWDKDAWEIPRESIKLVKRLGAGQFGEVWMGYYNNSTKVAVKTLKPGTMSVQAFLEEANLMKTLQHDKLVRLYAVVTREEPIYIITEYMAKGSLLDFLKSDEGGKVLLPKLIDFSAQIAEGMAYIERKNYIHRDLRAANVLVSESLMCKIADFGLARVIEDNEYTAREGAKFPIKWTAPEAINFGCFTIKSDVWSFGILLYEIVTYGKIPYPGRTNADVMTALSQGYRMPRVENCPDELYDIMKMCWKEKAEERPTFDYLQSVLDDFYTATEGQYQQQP

[24] = target: Insulin-like growth factor 1 receptor (Homo sapiens) (UniProt P08069); test: Inhibition of human IGF1R at 10 uM using myelin basic protein as substrate incubated for 40 mins in presence of [gamma33P]ATP by scintillation counting method relative to control
Insulin-like growth factor 1 receptor (Homo sapiens), sequence (P08069 31-736 limits assumed): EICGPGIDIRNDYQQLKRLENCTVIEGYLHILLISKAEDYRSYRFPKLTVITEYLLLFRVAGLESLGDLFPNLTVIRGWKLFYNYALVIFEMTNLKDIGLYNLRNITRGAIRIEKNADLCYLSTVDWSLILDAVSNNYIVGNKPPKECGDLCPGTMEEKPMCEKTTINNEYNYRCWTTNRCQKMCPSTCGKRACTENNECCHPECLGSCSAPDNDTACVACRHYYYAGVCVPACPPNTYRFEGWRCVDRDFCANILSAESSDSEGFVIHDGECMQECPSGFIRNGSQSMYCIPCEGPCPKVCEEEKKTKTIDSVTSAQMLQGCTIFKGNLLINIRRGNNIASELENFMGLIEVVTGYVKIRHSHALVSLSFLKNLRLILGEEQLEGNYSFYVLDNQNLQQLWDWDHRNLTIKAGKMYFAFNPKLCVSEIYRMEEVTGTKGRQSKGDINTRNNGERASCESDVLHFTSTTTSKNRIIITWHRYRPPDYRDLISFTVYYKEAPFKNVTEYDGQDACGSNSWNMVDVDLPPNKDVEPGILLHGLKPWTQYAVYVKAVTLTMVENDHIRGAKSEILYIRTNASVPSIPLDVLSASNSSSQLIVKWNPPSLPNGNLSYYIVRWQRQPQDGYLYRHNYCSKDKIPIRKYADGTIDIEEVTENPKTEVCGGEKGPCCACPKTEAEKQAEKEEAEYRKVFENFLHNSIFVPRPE
Insulin-like growth factor 1 receptor (Homo sapiens), sequence (P08069 741-1367 limits assumed): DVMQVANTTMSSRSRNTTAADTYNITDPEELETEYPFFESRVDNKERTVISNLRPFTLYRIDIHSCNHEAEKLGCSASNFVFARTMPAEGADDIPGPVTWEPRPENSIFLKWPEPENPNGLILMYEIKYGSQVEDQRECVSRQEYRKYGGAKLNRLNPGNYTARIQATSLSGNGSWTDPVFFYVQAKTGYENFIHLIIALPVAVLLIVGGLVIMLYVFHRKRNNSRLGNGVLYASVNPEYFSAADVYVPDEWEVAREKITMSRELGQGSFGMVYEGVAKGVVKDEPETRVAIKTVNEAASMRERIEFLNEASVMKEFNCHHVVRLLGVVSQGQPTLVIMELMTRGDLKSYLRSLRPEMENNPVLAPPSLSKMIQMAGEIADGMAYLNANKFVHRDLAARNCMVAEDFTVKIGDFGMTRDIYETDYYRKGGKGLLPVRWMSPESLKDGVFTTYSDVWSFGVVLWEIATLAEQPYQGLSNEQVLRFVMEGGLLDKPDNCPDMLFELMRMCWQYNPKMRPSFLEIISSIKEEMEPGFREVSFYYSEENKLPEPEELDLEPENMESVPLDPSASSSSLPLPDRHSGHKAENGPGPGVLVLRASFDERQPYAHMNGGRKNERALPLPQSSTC

[25] = target: Macrophage colony-stimulating factor 1 receptor (Homo sapiens) (UniProt P07333); test: Inhibition of human FMS at 10 uM using myelin basic protein as substrate incubated for 40 mins in presence of [gamma33P]ATP by scintillation counting method relative to control
Macrophage colony-stimulating factor 1 receptor (Homo sapiens), sequence (P07333 whole entry): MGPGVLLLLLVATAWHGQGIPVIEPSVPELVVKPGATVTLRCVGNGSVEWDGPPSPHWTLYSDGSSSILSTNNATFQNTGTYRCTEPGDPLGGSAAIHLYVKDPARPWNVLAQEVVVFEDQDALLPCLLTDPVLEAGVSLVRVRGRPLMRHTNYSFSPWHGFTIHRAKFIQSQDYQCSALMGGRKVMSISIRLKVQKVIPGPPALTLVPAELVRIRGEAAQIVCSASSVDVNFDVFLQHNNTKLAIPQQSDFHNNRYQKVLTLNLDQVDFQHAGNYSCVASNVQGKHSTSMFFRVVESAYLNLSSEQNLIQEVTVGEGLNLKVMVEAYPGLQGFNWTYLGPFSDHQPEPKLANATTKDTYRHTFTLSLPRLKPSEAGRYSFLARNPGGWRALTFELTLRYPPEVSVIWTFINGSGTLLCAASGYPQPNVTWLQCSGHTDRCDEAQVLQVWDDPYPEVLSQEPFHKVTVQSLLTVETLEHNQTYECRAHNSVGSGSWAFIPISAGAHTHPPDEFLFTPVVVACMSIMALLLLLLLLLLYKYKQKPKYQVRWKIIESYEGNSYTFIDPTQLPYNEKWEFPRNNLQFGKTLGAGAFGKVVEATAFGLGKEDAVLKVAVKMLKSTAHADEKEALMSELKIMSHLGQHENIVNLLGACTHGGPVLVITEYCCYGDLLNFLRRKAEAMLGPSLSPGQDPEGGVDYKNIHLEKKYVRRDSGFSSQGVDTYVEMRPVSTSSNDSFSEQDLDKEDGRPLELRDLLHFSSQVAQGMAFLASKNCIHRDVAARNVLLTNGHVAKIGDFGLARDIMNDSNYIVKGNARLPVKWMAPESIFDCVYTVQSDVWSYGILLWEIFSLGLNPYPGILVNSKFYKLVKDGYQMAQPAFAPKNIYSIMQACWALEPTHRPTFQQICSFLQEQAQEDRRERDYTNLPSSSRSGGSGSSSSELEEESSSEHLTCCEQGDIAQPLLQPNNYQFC

A498 = test: Growth inhibition of human A498 cells incubated for 48 hrs by sulforhodamine B assay; format: functional
HL-60(TB) [26] = test: Growth inhibition of human HL-60(TB) cells incubated for 48 hrs by sulforhodamine B assay; format: functional
HL-60(TB) [27] = test: Growth inhibition of human HL-60(TB) cells assessed as growth percentage at 0.01 uM incubated for 48 hrs by sulforhodamine B assay relative to control; format: functional; conditions: read-out: Activity
HL-60(TB) [28] = test: Growth inhibition of human HL-60(TB) cells assessed as growth percentage at 0.1 uM incubated for 48 hrs by sulforhodamine B assay relative to control; format: functional; conditions: read-out: Activity
HL-60(TB) [29] = test: Growth inhibition of human HL-60(TB) cells assessed as growth percentage at 1 uM incubated for 48 hrs by sulforhodamine B assay relative to control; format: functional; conditions: read-out: Activity
HL-60(TB) [30] = test: Growth inhibition of human HL-60(TB) cells assessed as growth percentage at 100 uM incubated for 48 hrs by sulforhodamine B assay relative to control; format: functional; conditions: read-out: Activity

Nc1nc2[nH]c(CN3CCN(c4cc(Cl)cc(Cl)c4)CC3)c(CN3CCN(c4cc(Cl)cc(Cl)c4)CC3)c2c(=O)[nH]1
GI50 (ACHN [1]): 1940 nM
TGI (ACHN [1]): 3900 nM
growth at 100 µM (ACHN [2]): -26%
growth at 0.1 µM (ACHN [3]): 98%
growth at 1 µM (SK-MEL-28 [4]): 91%
growth at 0.1 µM (SK-MEL-28 [5]): 98%
growth at 100 µM (SK-MEL-2): -48%
growth at 100 µM (OVCAR-5 [6]): -35%
growth at 100 µM (SF-539 [7]): -55%
growth at 1 µM (OVCAR-5 [8]): 89%
growth at 0.1 µM (OVCAR-5 [9]): 94%
growth at 0.1 µM (SF-539 [10]): 94%
growth at 0.01 µM (OVCAR-5 [11]): 87%
growth at 0.01 µM (SF-539 [12]): 89%

CCCCCCCC(=O)Nc1nc2[nH]c(CN3CCN(Cc4cccc(F)c4)CC3)c(CN3CCN(Cc4cccc(F)c4)CC3)c2c(=O)[nH]1
Tmax [13]: 2.25 h
Cmax [14]: 10 ng/mL
AUC(0-t) at 24 h [15]: 56.7 ng·h/mL
AUC(0-inf) [16]: 61.7 ng·h/mL
bioavailability [17]: 12.3%
clearance [18]: 342 mL/min/kg
half-life [19]: 11.7 h
AUC(0-t) at 24 h [20]: 317 ng·h/mL
AUC(0-inf) [21]: 498 ng·h/mL
inhibition [22]: 45.5%
inhibition [23]: 70.3%
inhibition [24]: 70.3%
inhibition [25]: 70.3%
GI50 (A498; A498): 1250 nM
TGI (A498; A498): 2530 nM
CC50 (A498; A498, 48 h, read-out: LC50 (the source's name)): 5100 nM
GI50 (HL-60(TB) [26]): 1740 nM
TGI (HL-60(TB) [26]): 3750 nM
growth at 0.01 µM (HL-60(TB) [27]): 98%
growth at 0.1 µM (HL-60(TB) [28]): 99%
growth at 1 µM (HL-60(TB) [29]): 96%
growth at 100 µM (HL-60(TB) [30]): -45%
